Data set [1] can be described thus: Acute toxicity in the mouse (LD50 by Litchfield and Wilcoxon method). The class given is in vivo. Conditions: oral and intravenous administration, at the tested doses. The protocol: The acute toxicity of IPA 955 has been studied in the mouse after oral and intravenous administration. The LD₅₀ values were calculated according to the Litchfield and Wilcoxon method (J. Pharm. Exp. Therap. 1949, 96, 99).

The next data set concerns the target T1, aldose-reductase (Rattus norvegicus, UniProt P07943).
T1 construct: The surnatant, after centrifugation at 3000 x g for 15 minutes, has been used; from tissue; host or cells: crystalline lenses of adult male rats (homogenate supernatant)
In words: Aldose-reductase inhibitory activity (rat lens homogenate supernatant, method of Varma and Kinoshita). The class given is biochemical, rats. How it is done: Crystallin lenses of adult male rats have been homogenized in 0.1 M phosphate buffer pH 6.2. The surnatant, after centrifugation at 3000 x g for 15 minutes, has been used. The surnatant contained 13 mg/ml of proteins. Quercitrin (Fluka, Buchs) 1 mM dissolved in DMSO: H2O (1:10) has been used. The aldose-reductase activity has been tested by the method described by […] J.H. Kinoshita (Biochem. Pharmacol. 25, 2505, 1976) using 1 ml of final volume containing NAPDH (20 μl of a 10 mM solution), DL glyceraldheide 1.5 x 10^-3 M final, […] (25 μl of a 1 M solution) and 150 μl of a surnatant. The blank contained the same substances, except the surnatant.

The subject of data set [2] is platelets of rabbit blood. In words: In vitro platelet antiaggregant activity, ADP-induced aggregation. The class given is cell-based. How it is done: (§1) The platelet antiaggregant activity of IPA 955 has been determined in comparison with a known antiaggregant activity, Ticlopidine, on the platelets of rabbit blood added with 3.6% sodium citrate in an amount of 10%. The blood was centrifuged for 15' at 1200 rpm and the surnatant was recovered for its platelet content. The residue has been further centrifuged with the aim of obtaining a "poor" plasma (3000 - 3500 rpm). The plasma platelets obtained after the first centrifugation were suitably diluted with the poor plasma, counted and the rich plasma (first centrifugation) was diluted according to the platelet count so as to obtain a final concentration of platelets of 25.10⁴ ÷ 30.10⁴/mm³.
(§2) The aggregation was induced by the addition of ADP and collagene at the specified concentrations.

Data set [3] deals with platelets of rabbit blood. The experiment in a line: In vitro platelet antiaggregant activity, collagen-induced aggregation. The data set is classed as cell-based. Conditions: for inhibition at 625 µM / inhibition at 1250 µM: Oryctolagus cuniculus, Platelet, read-out: Percent inhibition; for inhibition at 625 µM: compound 0.625 mM; for inhibition at 1250 µM: compound 1.25 mM. The protocol: as §1, §2

Setting [4] is: ADP conc. 5.0 μM, compound 1.25 mM.
Where [5] appears, read: ADP conc. 6.25 μM, compound 0.625 mM.
The mark [6] stands for this setting: ADP conc. 6.25 μM, compound 1.25 mM.
The mark [7] stands for this setting: ADP conc. 8.3 μM, compound 1.25 mM.
Setting [8] is: ADP conc. 12.5 μM, compound 0.625 mM.
The mark [9] stands for this setting: ADP conc. 12.5 μM, compound 1.25 mM.

Read-outs that look alike come from different tables or passages of the source.

What is called Ki is the equilibrium dissociation constant of an inhibitor or competing ligand from its target. Usually inhibition stands for how much of the control response was suppressed.

With `O=C(O)CCN1C(=O)c2cccc3cccc(c23)C1=O` [IPA 955, N-(2-carboxy)-ethyl-1,8-naphthaleneimide], in data set [1], the acute toxicity entry was “practically devoid of toxicity”. The “activity relative to quercitrin (times higher)” value on aldose-reductase (ratio of Ki values against quercitrin) is “about 6 times”. In addition, the Ki on aldose-reductase (supernatant of rat lens homogenate, DL glyceraldheide 1.5 x 10⁻³ M, NADPH, read-out: Ki) is 1.04 µM. Besides, the Percent inhibition in data set [2] (setting [4]) is listed as 14.6%; in data set [2] (setting [5]), 8.4%; in data set [2] (setting [6]), 25.66%; in data set [2] (setting [7]) it was 16.3%; in data set [2] (setting [8]), 23.17%; in data set [2] (setting [9]), 16.85%. Further, the “Percent inhibition” value in data set [2] (ADP-induced aggregation, summary over the tables) was “about 20%”. Also, in data set [3] (collagene 25 μg/ml), the inhibition at 625 µM is 41%. Moreover, the inhibition at 1250 µM in data set [3] (collagene 25 μg/ml) was 48.8%; in data set [3] (collagene 50 μg/ml), 38.7%. Also, the “platelet antiaggregation activity (percent inhibition)” value in data set [3] (collagen induced aggregation, summary over the tables) fell in the range of 40 to 50%.
As to `Clc1ccccc1CN1CCc2sccc2C1` [TICLOPIDINE, Ticlopidine, reference compound], the Percent inhibition in data set [2] (setting [4]) amounted to 24.4%; in data set [2] (setting [5]) it was 9.7%; in data set [2] (setting [6]) it was 20.5%; in data set [2] (setting [7]), 19.75%; in data set [2] (setting [8]), 15.66%; in data set [2] (setting [9]) it was 20.02%. Moreover, in data set [3] (collagene 25 μg/ml), the inhibition at 625 µM was 45.3%. Besides, the figures for the inhibition at 1250 µM in data set [3] (collagene 25 μg/ml) and in data set [3] (collagene 50 μg/ml) were 66.5% and 59.6%, respectively.
For the compound `C[C@@H]1O[C@@H](Oc2c(-c3ccc(O)c(O)c3)oc3cc(O)cc(O)c3c2=O)[C@H](O)[C@H](O)[C@H]1O` [quercitrin, reference compound], the Ki at aldose-reductase came out at 6 µM.

Values taken from patent publication EP0206322B1, “N-(2-carboxy)-ethyl-1,8-naphthalene imide and its salts for the treatment of diabetic retinopathies and neuropathies” (I.P.A. INTERNATIONAL PHARMACEUTICAL ASSOCIATED S.r.l., priority 1985, dated 1986).
